In one test the target is T1, soluble FGFR-1 (FRAP) (Mus musculus, UniProt P16092).
T1 sequence (P16092 22-376 limits assumed): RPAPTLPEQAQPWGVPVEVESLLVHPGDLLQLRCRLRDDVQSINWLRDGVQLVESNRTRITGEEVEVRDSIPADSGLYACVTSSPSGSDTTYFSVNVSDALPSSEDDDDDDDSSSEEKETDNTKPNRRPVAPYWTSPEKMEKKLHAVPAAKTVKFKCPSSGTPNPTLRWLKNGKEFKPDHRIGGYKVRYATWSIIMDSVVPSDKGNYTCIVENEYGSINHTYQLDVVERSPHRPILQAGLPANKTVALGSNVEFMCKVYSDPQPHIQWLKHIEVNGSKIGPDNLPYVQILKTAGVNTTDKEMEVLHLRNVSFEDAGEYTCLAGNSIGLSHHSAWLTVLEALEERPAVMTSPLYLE
As to the kind of experiment: Binding of 125I-bFGF to immobilized soluble FGFR-1 (FRAP), cell-free.

For another test, the target named is FGFR-1 (Mus musculus, UniProt P16092). As to the kind of experiment: Binding of 125I-bFGF to CHO cells expressing FGFR-1. Conditions: read-out: Cellular receptor binding (IC50); binding of FGF to FGFR; Methods section (iv).
FGFR-1, sequence (P16092 22-822): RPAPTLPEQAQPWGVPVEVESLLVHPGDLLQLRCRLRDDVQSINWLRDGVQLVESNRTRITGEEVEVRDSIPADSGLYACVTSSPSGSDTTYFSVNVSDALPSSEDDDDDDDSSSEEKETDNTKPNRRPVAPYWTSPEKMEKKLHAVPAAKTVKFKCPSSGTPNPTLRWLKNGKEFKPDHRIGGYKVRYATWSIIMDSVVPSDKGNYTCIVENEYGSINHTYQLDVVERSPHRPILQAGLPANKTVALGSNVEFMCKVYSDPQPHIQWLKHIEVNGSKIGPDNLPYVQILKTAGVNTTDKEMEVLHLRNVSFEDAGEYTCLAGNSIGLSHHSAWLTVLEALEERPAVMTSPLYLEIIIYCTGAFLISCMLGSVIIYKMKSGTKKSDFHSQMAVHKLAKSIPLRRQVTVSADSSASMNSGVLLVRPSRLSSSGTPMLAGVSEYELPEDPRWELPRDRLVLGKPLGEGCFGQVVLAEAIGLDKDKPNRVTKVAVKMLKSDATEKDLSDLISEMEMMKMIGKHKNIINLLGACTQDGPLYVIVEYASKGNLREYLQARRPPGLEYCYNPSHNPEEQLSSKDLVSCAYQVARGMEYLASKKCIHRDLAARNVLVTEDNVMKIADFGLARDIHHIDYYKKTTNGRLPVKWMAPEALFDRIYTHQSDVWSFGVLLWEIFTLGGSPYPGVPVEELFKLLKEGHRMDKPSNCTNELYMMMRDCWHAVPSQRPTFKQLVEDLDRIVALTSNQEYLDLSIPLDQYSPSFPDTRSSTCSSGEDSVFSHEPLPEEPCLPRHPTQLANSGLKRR
The next test concerns the target T2, FGFR-3 (Homo sapiens, UniProt P22607).
T2 construct: soluble FGFR-3 ectodomain alkaline phosphatase fusion protein (FR-3-AP); made in house; host or cells: NIH 3T3 cells (conditioned medium)
T2 sequence (P22607 23-375 limits assumed): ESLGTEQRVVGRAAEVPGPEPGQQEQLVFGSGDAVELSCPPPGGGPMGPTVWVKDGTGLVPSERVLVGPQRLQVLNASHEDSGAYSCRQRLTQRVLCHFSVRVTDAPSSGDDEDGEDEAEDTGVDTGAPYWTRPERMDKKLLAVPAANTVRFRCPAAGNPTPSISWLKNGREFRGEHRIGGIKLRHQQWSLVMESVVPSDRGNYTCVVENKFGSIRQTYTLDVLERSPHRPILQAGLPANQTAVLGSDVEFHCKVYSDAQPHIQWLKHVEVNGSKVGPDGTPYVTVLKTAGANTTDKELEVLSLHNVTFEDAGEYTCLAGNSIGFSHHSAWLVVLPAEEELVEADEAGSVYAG
The test can be described thus: Binding of 125I-FGF9 to immobilized soluble FGFR-3 (FR-3-AP). Conditions: FIG. 11. As to the method: Incubations were performed in the presence of 100 ng/ml heparin and increasing concentrations of porphyrins. […] Results represent the mean value in one of at least two independent experiments.
(iii) Binding of ^125I-bFGF or ^125I-FGF9 to s luble FGFR-1 or FGFR-3. Conditioned medium from NIH 3T3 cells secreting soluble FRAP or FGFR-3 FR-3-AP, was incubated for 45 min at room temperature with rabbit anti-human placental AP antibodies (generated as described in Ornitz et al, 1991) prebound to agarose-protein A beads Pierce). The FGFR-1 or FGFR-3-coupled beads were washed three times with 1 ml HNTG and incubated with 2 ng/ml of ^125I-FGF, 1 μg/ml of heparin and porphyrin/corrole compound at different concentrations for 1 h at room temperature. High affinity-bound ^125I-bFGF was determined by counting of the samples in a γ-counter.
Thus, the compounds were tested for their capacity to inhibit binding of a soluble FGFR-3 ectodomain alkaline phosphatase fusion protein (FR-3-AP) to FGF-9, utilizing a cell free system, similar to the one described for FGFR-1 in Example 1 above, and measuring the binding of radiolabeled ^125I-FGF-9 to soluble FGFR-3.

A further test deals with FGF receptor (Mus musculus, UniProt P16092). The test can be described thus: In vitro inhibition of bFGF binding (assay format not stated).
FGF receptor, sequence (P16092 22-822): as the sequence (P16092 22-822) above
The subject of test [1] is Lewis lung carcinoma (LLC) lung metastasis. As to the kind of experiment: Lewis lung carcinoma lung metastasis model. The class given is in vivo, C57 black mice. More on the design: Inhibitory activity in vivo, LLC tumor model (as % of total inhibition): reference not given here. As to the method: (vii) Lewis lung carcinoma tumor assay. Murine Lewis lung carcinoma (LLC) D122 cells (1×10^6 cells/[…] PBS) were injected into the foot pads of 10-week old C57 black mice (O'Reilly et al, 1994). Twenty five μg/g of body mass of porphyrin or corrole compound dissolved in PBS were injected IP twice a week to the treated group, and tumor size was measured periodically in order to follow primary tumor formation. In order to evaluate inhibition of lung metastasis by porphyrin or corrole compound, the primary tumors were allowed to develop over a period of six weeks to a volume of approximately 8 mm^3; after which the tumors were removed and metastases were allowed to develop for four weeks. During this time the treated group received 25 μg/g of body mass of porphyrin or corrole compound IP twice a week. Subsequently the mice were sacrificed, dissected and the lungs removed and photographed. The extent of lung metastasis was measured by weighing the lungs.
After establishing the capacity of P1 to inhibit primary tumor growth, the capacity of P1 to inhibit lung metastasis formation was measured as described in Methods, section (vi). Mice were injected with LLC cells (200,000 cells per mouse) into the foot pad and primary tumors were allowed to develop over a period of 3 to 4 weeks to a volume of approximately 8 mm^3. Subsequently, primary tumors were removed through amputation and lung metasases were allowed to develop for four weeks before the mice were sacrificed. The extent of lung metastasis at this point was examined by gross morphological examination and by determining the gain in lung weight. […] In order to quantitate the results from these experiments, the lungs from all mice were weighed and evaluated for the extent of metastatic growth.

The source of these data is patent US6730666B1, “Pharmaceutical compositions comprising porphyrins and some novel porphyrin derivatives” (Yeda Research and Development Co. Ltd., priority 1998, dated 2004).

The term pIC50 denotes the IC50 on a negative log10 scale, so that one unit is a factor of ten.

The structures appear in SMILES notation. pIC50: −log10 of the molar value. Entries after “also recorded” stand apart in the source; their conditions may differ.

Text for soluble FGFR-1 (FRAP): First we utilized a cell-free system, measuring the binding of radiolabeled bFGF to a dimeric soluble FGFR-1 fused to alkaline phosphatase. […] As a: second experimental model, we used CHO cells deficient in heparan sulfate and genetically engineered to express FGFR-1 (Methods, section (iv)).

On to `C[N+](C)(C)c1c(F)c(F)c(-c2c3nc(c(-c4c(F)c(F)c([N+](C)(C)C)c(F)c4F)c4ccc([nH]4)c(-c4c(F)c(F)c([N+](C)(C)C)c(F)c4F)c4nc(c(-c5c(F)c(F)c([N+](C)(C)C)c(F)c5F)c5ccc2[nH]5)C=C4)C=C3)c(F)c1F.O=S(=O)([O-])C(F)(F)F.O=S(=O)([O-])C(F)(F)F.O=S(=O)([O-])C(F)(F)F.O=S(=O)([O-])C(F)(F)F` [Compound P15, 5,10,15,20-Tetrakis(2,3,5,6-tetrafluoro-4-trimethyl-ammonio-phenyl)-21H,23H-methyl-porphine tetra-trifluoromethylsulfonate], for which the pIC50 at soluble FGFR-1 (FRAP) (read-out: Soluble receptor binding (IC50), binding of FGF to FGFR, Methods section (iii)) was 7.10; on FGFR-1, 6.92. For the same molecule, the “Relative potency in FGF-9/FGFR-3 soluble receptor assay, in words” value on FGFR-3 is given as “more potent”.

On to `C[n+]1ccccc1-c1c(F)c(F)c(-c2c3nc(c(-c4c(F)c(F)c(-c5cccc[n+]5C)c(F)c4F)c4ccc([nH]4)c(-c4c(F)c(F)c(-c5cccc[n+]5C)c(F)c4F)c4nc(c(-c5c(F)c(F)c(-c6cccc[n+]6C)c(F)c5F)c5ccc2[nH]5)C=C4)C=C3)c(F)c1F` [Compound P20, 5,10,15,20-Tetrakis[4-(N-methyl-2-pyridylium) 2,3,5,6-tetrafluoro-phenyl]-21H,23H-porphine tetraiodide], for which, at soluble FGFR-1 (FRAP) (FIG. 8B), the “Inhibition of bFGF binding to immobilized FRAP, in words” value is “inhibit bFGF binding in vitro”. For the same molecule, the “Activity in vitro in words (inhibition of bFGF binding)” value at FGF receptor is given as “significantly more active than P1”. Also, the “Inhibition of lung metastasis in LLC model, in words” value in test [1] (25 μg/g of body mass IP) is reported as “highly active in vivo; also recorded: more active than P1”. Further, the “Inhibitory activity in vivo, LLC tumor model (as % of total inhibition)” value in test [1] (25 μg/gram, LLC murine tumor model, lung metastasis) is reported as 150%.
